Assay results from publication PMC8606745 (Frontiers in Microbiology, 2021).
Read-outs that look alike come from different tables or passages of the source. Peptide text beside a SMILES is read from it.

Assays:
[1] = tested on: horse erythrocytes
[2] = tested on: Gram-negative bacteria; set-up: key: Xf: Xylella fastidiosa; Ec: Escherichia coli; Pa: Pseudomonas aeruginosa; Ab: Acinetobacter baumannii; Kp: Klebsiella pneumoniae; Bc: Burkholderia cenocepacia; Se: Salmonella enterica subsp. enterica; Sp: Salmonella pullorum; –: low or no activity; conditions: cited from earlier work
[3] = tested on: X. fastidiosa subsp. fastidiosa IVIA 5387.2
[4] = tested on: X. fastidiosa subsp. fastidiosa IVIA 5387.2; assay type: cell-based, Xylella fastidiosa
[5] = tested on: Gram-negative bacteria; set-up: key: Xf: Xylella fastidiosa; Ec: Escherichia coli; Pa: Pseudomonas aeruginosa; Ab: Acinetobacter baumannii; Kp: Klebsiella pneumoniae; Bc: Burkholderia cenocepacia; Se: Salmonella enterica subsp. enterica; Sp: Salmonella pullorum; –: low or no activity; conditions: cited from earlier work; remark: listed apart in the source

| Molecule | Hemolysis ([1]; 150 µM) | Hemolysis ([1]; 250 µM) | Hemolysis ([1]; 375 µM) | Described activity: Antibiofilm [2] | Bactericidal activity: Reduction in viability (Log N0/N) ([3]; 50 µM) | Biofilm formation Level (antibiofilm activity) ([4]; 50 µM) | Biofilm formation Ratio (treatment/NTC) ([4]; 50 µM) | Planktonic cells Ratio (treatment/NTC) ([4]; 50 µM) | Described activity: Antibacterial [5] | Bactericidal activity: Reduction in viability (Log N0/N) [3] | further results |
| --- | --- | --- | --- | --- | --- | --- | --- | --- | --- | --- | --- |
| CC[C@H](C)[C@H](NC(=O)[C@H](CCCNC(=N)N)NC(=O)[C@@H](N)Cc1ccccc1)C(=O)N[C@@H](CCCNC(=N)N)C(=O)N[C@H](C(=O)N[C@@H](CCCNC(=N)N)C(=O)N[C@H](C(N)=O)C(C)C)C(C)C [FV7] (H-FRIRVRV-NH2; N-terminus assumed) | 3.7 ± 0.4% | 4.4 ± 0.3% | 9.5 ± 1.4% | Ec, Pa | 0.07 ± 0.14 Log N0/N | High (key: High: high antibiofilm activity (ratio of biofilm formation from 0.01 to 0.2); Moderate: moderate activity (ratio from 0.29 to 0.47); Low: low activity (ratio from 0.72 to 0.77)) | 0.20 ± 0.01 | 1.33 ± 0.17 | Ec, Pa, Se, Sp |  |  |
| CC[C@H](C)[C@H](NC(=O)[C@H](CCCNC(=N)N)NC(=O)[C@H](Cc1ccccc1)NC(=O)[C@H](CCCNC(=N)N)NC(=O)[C@@H](N)CCCCN)C(=O)N[C@@H](CCCNC(=N)N)C(=O)N[C@H](C(=O)N[C@@H](CCCNC(=N)N)C(=O)N[C@H](C(=O)N[C@H](C(=O)N[C@@H](CCCNC(=N)N)C(=O)N[C@@H](CCCCN)C(N)=O)[C@@H](C)CC)C(C)C)C(C)C [HH15] (H-KRFRIRVRVIRK-NH2) | 2.3 ± 0.3% | 4.5 ± 1.9% | 4.0 ± 0.4% | Pa, Bc |  |  |  |  | Pa, Bc | 0.21 ± 0.02 Log N0/N | Biofilm formation Level (antibiofilm activity) [4]: High (key: High: high antibiofilm activity (ratio of biofilm formation from 0.01 to 0.2); Moderate: moderate activity (ratio from 0.29 to 0.47); Low: low activity (ratio from 0.72 to 0.77)); Biofilm formation Ratio (treatment/NTC) [4]: 0.14 ± 0.01; Planktonic cells Ratio (treatment/NTC) [4]: 2.50 ± 0.05 |
| CC[C@H](C)[C@H](NC(=O)CN)C(=O)N[C@@H](CC(C)C)C(=O)NCC(=O)N[C@@H](CCCCN)C(=O)N[C@@H](CC(C)C)C(=O)N[C@@H](Cc1c[nH]c2ccccc12)C(=O)N[C@@H](CCC(=O)O)C(=O)NCC(=O)N[C@H](C(=O)N[C@@H](CCCCN)C(=O)N[C@@H](CO)C(=O)N[C@H](C(=O)N[C@@H](Cc1ccccc1)C(N)=O)[C@@H](C)CC)C(C)C [HP1404] (H-GILGKLWEGVKSIF-NH2) | 100.0 ± 0.5% | 100.0 ± 3.9% | 100.0 ± 0.7% | Pa |  |  |  |  | Pa | 0.00 ± 0.12 Log N0/N | Biofilm formation Level (antibiofilm activity) [4]: High (key: High: high antibiofilm activity (ratio of biofilm formation from 0.01 to 0.2); Moderate: moderate activity (ratio from 0.29 to 0.47); Low: low activity (ratio from 0.72 to 0.77)); Biofilm formation Ratio (treatment/NTC) [4]: 0.15 ± 0.01; Planktonic cells Ratio (treatment/NTC) [4]: 2.75 ± 0.02 |
| CC[C@H](C)[C@H](NC(=O)[C@H](CCCNC(=N)N)NC(=O)[C@@H](NC(=O)[C@H](C)NC(=O)[C@@H](NC(=O)[C@@H](NC(=O)[C@H](CC(C)C)NC(=O)[C@H](CCCNC(=N)N)NC(=O)[C@@H](N)C(C)C)[C@@H](C)CC)C(C)C)C(C)C)C(=O)N[C@@H](Cc1c[nH]c2ccccc12)C(=O)N[C@@H](CCCNC(=N)N)C(=O)N[C@@H](CCCNC(=N)N)C(N)=O [IDR-1018] (H-VRLIVAVRIWRR-NH2; N-terminus and C-terminus assumed) | 35.6 ± 4.4% | 43.0 ± 0.2% | 45.9 ± 4.9% | Pa, Ec, Ab, Kp, Se, Bc | 1.80 ± 0.01 Log N0/N | High (key: High: high antibiofilm activity (ratio of biofilm formation from 0.01 to 0.2); Moderate: moderate activity (ratio from 0.29 to 0.47); Low: low activity (ratio from 0.72 to 0.77)) | 0.06 ± 0.01 | 1.72 ± 0.07 | Kp, Ec |  |  |
| CC[C@H](C)[C@H](N)C(=O)N[C@@H](CC(C)C)C(=O)N1CCC[C@H]1C(=O)N[C@@H](Cc1c[nH]c2ccccc12)C(=O)N[C@@H](CCCCN)C(=O)N[C@@H](Cc1c[nH]c2ccccc12)C(=O)N1CCC[C@H]1C(=O)N[C@@H](Cc1c[nH]c2ccccc12)C(=O)N[C@@H](Cc1c[nH]c2ccccc12)C(=O)N1CCC[C@H]1C(=O)N[C@@H](Cc1c[nH]c2ccccc12)C(=O)N[C@@H](CCCNC(=N)N)C(=O)N[C@@H](CCCNC(=N)N)C(N)=O [Indolicidin] | 95.1 ± 5.0% | 100.0 ± 4.4% | 100.0 ± 2.5% |  |  |  |  |  | Xf | 2.46 ± 0.11 Log N0/N | log reduction of cell viability ([3]; 3 h, 50 μM): 2-3 log; Biofilm formation Level (antibiofilm activity) [4]: High (key: High: high antibiofilm activity (ratio of biofilm formation from 0.01 to 0.2); Moderate: moderate activity (ratio from 0.29 to 0.47); Low: low activity (ratio from 0.72 to 0.77)); Biofilm formation Ratio (treatment/NTC) [4]: 0.09 ± 0.01; Planktonic cells Ratio (treatment/NTC) [4]: 0.46 ± 0.07 |
| CC[C@H](C)[C@H](NC(=O)[C@H](CCCNC(=N)N)NC(=O)[C@H](CCCNC(=N)N)NC(=O)[C@H](Cc1c[nH]c2ccccc12)NC(=O)[C@H](Cc1ccccc1)NC(=O)[C@@H](N)C(C)C)C(=O)N[C@@H](CCCNC(=N)N)C(=O)N[C@H](C(=O)N[C@@H](Cc1c[nH]c2ccccc12)C(=O)N[C@H](C(=O)N[C@H](C(=O)N[C@@H](CCCNC(=N)N)C(N)=O)[C@@H](C)CC)C(C)C)C(C)C [LJK2] (H-VFWRRIRVWVIR-NH2) | 28.4 ± 1.9% | 43.9 ± 3.7% | 72.4 ± 8.9% |  |  |  |  |  |  | 0.80 ± 0.10 Log N0/N | Effect on X. fastidiosa growth in the antibiofilm test [4]: affected X. fastidiosa’s growth |
| CC[C@H](C)[C@H](NC(=O)[C@H](CCCNC(=N)N)NC(=O)[C@@H](NC(=O)[C@H](Cc1c[nH]c2ccccc12)NC(=O)[C@@H](NC(=O)[C@@H](NC(=O)[C@@H](N)CCCNC(=N)N)[C@@H](C)CC)C(C)C)C(C)C)C(=O)N[C@@H](CCCNC(=N)N)C(=O)N[C@@H](CCCNC(=N)N)C(=O)N[C@@H](Cc1c[nH]c2ccccc12)C(=O)N[C@@H](Cc1ccccc1)C(=O)N[C@H](C(N)=O)C(C)C [RJK2] (H-RIVWVRIRRWFV-NH2) | 19.2 ± 3.1% | 29.6 ± 2.2% | 50.2 ± 5.4% |  | 0.70 ± 0.08 Log N0/N | High (key: High: high antibiofilm activity (ratio of biofilm formation from 0.01 to 0.2); Moderate: moderate activity (ratio from 0.29 to 0.47); Low: low activity (ratio from 0.72 to 0.77)) | 0.02 ± 0.00 | 1.54 ± 0.07 |  |  |  |
| CC[C@H](C)[C@H](NC(=O)[C@H](CCCNC(=N)N)NC(=O)[C@H](CCCNC(=N)N)NC(=O)[C@H](CC(C)C)NC(=O)[C@H](Cc1c[nH]c2ccccc12)NC(=O)[C@H](C)NC(=O)[C@H](CCCCN)NC(=O)[C@@H](NC(=O)[C@H](CCCNC(=N)N)NC(=O)[C@H](CCCNC(=N)N)NC(=O)[C@H](CC(C)C)NC(=O)[C@@H](N)Cc1c[nH]c2ccccc12)[C@@H](C)CC)C(=O)N[C@@H](CCCCN)C(=O)N[C@@H](C)C(=O)O [RR4-OH] | 3.2 ± 1.0% | 9.8 ± 3.7% | 17.8 ± 0.3% | Pa, Ab | 1.94 ± 0.03 Log N0/N | High (key: High: high antibiofilm activity (ratio of biofilm formation from 0.01 to 0.2); Moderate: moderate activity (ratio from 0.29 to 0.47); Low: low activity (ratio from 0.72 to 0.77)) | 0.09 ± 0.01 | 1.87 ± 0.10 | Pa, Ab |  |  |
| HOC11H22CO-ILPFKFPFFPFRR-NH2 [BP529] | 7.2 ± 0.3% | 12.5 ± 0.6% | 39.0 ± 1.1% |  | 0.62 ± 0.09 Log N0/N | High (key: High: high antibiofilm activity (ratio of biofilm formation from 0.01 to 0.2); Moderate: moderate activity (ratio from 0.29 to 0.47); Low: low activity (ratio from 0.72 to 0.77)) | 0.12 ± 0.03 | 2.29 ± 0.03 |  |  |  |
| KRIVKLILKWLR-NH2 [KR-12-a5] | 79.0 ± 0.6% | 96.1 ± 1.8% | 100.0 ± 1.7% | Pa | 1.40 ± 0.07 Log N0/N |  |  |  | Ec, Pa, Se |  | Effect on X. fastidiosa growth in the antibiofilm test ([4]; 50 µM): affected X. fastidiosa’s growth |
| Magainin 2 | 35.2 ± 1.1% | 54.5 ± 3.7% | 71.1 ± 6.0% |  | 3.29 ± 0.11 Log N0/N |  |  |  | Xf |  | Bactericidal activity: Reduction in viability (Log N0/N) ([3]; 3.1 µM): 0.49 ± 0.10 Log N0/N; log reduction ([3]; 3.1 µM): poorly active; Bactericidal activity: Reduction in viability (Log N0/N) ([3]; 12.5 μM): 2.07 ± 0.12 Log N0/N; log reduction ([3]; 12.5 μM): 2 log; Biofilm formation Level (antibiofilm activity) ([4]; 12.5 μM): Moderate (key: High: high antibiofilm activity (ratio of biofilm formation from 0.01 to 0.2); Moderate: moderate activity (ratio from 0.29 to 0.47); Low: low activity (ratio from 0.72 to 0.77)); Biofilm formation Ratio (treatment/NTC) ([4]; 28°C, 5 days): 0.47 ± 0.02; Planktonic cells Ratio (treatment/NTC) ([4]; 28°C, 5 days): 1.59 ± 0.13 |
